Reference: patent US7118895B2, “Process for producing aglycon by using diglycosidase and flavor-improved food containing the aglycon and converting agent to be used in the process” (Amano Enzyme Inc., priority 2000, dated 2006)

Tests used:
[1] = system: Crude diglycosidase; experiment: Examination of temperature in the conversion into isoflavone aglycons by diglycosidase using soybean materials; assay type: biochemical, Penicillium multicolor IAM7153; set-up: Decomposition efficiency of glycitin family in roasted soy flour / Decomposition efficiency of daidzin family in roasted soy flour / Decomposition efficiency of genistin family in soymilk / Decomposition efficiency of daidzin family in soymilk / Decomposition efficiency of glycitin family in defatted soybean / Decomposition efficiency of daidzin family in defatted soybean: concentration or dose not given beside the values
Summary of the method: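 Soybean materials (50 mg) suspended in 20 mM acetate buffer pH 4.0 reacted with crude diglycosidase diluted to 1.88 AU/mL at 80, 65, 55, 45, 37 or 30° C. Reactions stopped with ethanol at 0, 1, 3 and 6 h; isoflavone glycosides and aglycons in supernatant detected by HPLC.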

[2] = system: β-Glucosidase derived from almond; experiment: Reactivity toward various isoflavone glycosides (HPLC); assay type: biochemical; set-up: unit not given here; conditions: 55 °C, pH 4.0
Summary of the method: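 Enzymes at 0.75 AU/mL in pH 4.0 acetate buffer were reacted at 55° C with individual isoflavone glycosides (substrate stock 2 mM in methanol) in 20 mM acetate pH 4.0. Aglycone release followed at 0, 1, 3 and 6 h: ethanol-quenched, ODS HPLC with UV 260 nm, quantified against calibration curves.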

[3] = 30° C., heat treatment of enzyme no, reaction time 0 h
[4] = 30° C., heat treatment of enzyme no, reaction time 1 h
[5] = 30° C., heat treatment of enzyme no, reaction time 3 h
[6] = 30° C., heat treatment of enzyme no, reaction time 6 h
[7] = 30° C., heat treatment of enzyme yes, reaction time 6 h
[8] = 30 °C, heat treatment of enzyme: no, 0 h
[9] = 30 °C, heat treatment of enzyme: no, 1 h
[10] = 30 °C, heat treatment of enzyme: no, 3 h
[11] = 30 °C, heat treatment of enzyme: no, 6 h
[12] = 30 °C, heat treatment of enzyme: yes, 6 h
[13] = 45° C., heat treatment of enzyme no, reaction time 0 h
[14] = 45° C., heat treatment of enzyme no, reaction time 1 h
[15] = 45° C., heat treatment of enzyme no, reaction time 3 h
[16] = 45° C., heat treatment of enzyme no, reaction time 6 h
[17] = 45° C., heat treatment of enzyme yes, reaction time 6 h
[18] = 45 °C, heat treatment of enzyme: no, 0 h
[19] = 45 °C, heat treatment of enzyme: no, 1 h
[20] = 45 °C, heat treatment of enzyme: no, 3 h
[21] = 45 °C, heat treatment of enzyme: no, 6 h
[22] = 45 °C, heat treatment of enzyme: yes, 6 h
[23] = 55° C., heat treatment of enzyme no, reaction time 0 h
[24] = 55° C., heat treatment of enzyme no, reaction time 1 h
[25] = 55° C., heat treatment of enzyme no, reaction time 3 h
[26] = 55° C., heat treatment of enzyme no, reaction time 6 h
[27] = 55° C., heat treatment of enzyme yes, reaction time 6 h
[28] = 55 °C, heat treatment of enzyme: no, 0 h
[29] = 55 °C, heat treatment of enzyme: no, 1 h
[30] = 55 °C, heat treatment of enzyme: no, 3 h
[31] = 55 °C, heat treatment of enzyme: no, 6 h
[32] = 55 °C, heat treatment of enzyme: yes, 6 h
[33] = 65° C., heat treatment of enzyme no, reaction time 0 h
[34] = 65° C., heat treatment of enzyme no, reaction time 1 h
[35] = 65° C., heat treatment of enzyme no, reaction time 3 h
[36] = 65° C., heat treatment of enzyme no, reaction time 6 h
[37] = 65° C., heat treatment of enzyme yes, reaction time 6 h
[38] = 65 °C, heat treatment of enzyme: no, 0 h
[39] = 65 °C, heat treatment of enzyme: no, 1 h
[40] = 65 °C, heat treatment of enzyme: no, 3 h
[41] = 65 °C, heat treatment of enzyme: no, 6 h
[42] = 65 °C, heat treatment of enzyme: yes, 6 h
[43] = 80° C., heat treatment of enzyme no, reaction time 0 h
[44] = 80° C., heat treatment of enzyme no, reaction time 1 h
[45] = 80° C., heat treatment of enzyme no, reaction time 3 h
[46] = 80° C., heat treatment of enzyme no, reaction time 6 h
[47] = 80° C., heat treatment of enzyme yes, reaction time 6 h
[48] = 80 °C, heat treatment of enzyme: no, 0 h
[49] = 80 °C, heat treatment of enzyme: no, 1 h
[50] = 80 °C, heat treatment of enzyme: no, 3 h
[51] = 80 °C, heat treatment of enzyme: no, 6 h
[52] = 80 °C, heat treatment of enzyme: yes, 6 h

SMILES: O=C(O)CC(=O)OC[C@H]1O[C@@H](Oc2cc(O)c3c(=O)c(-c4ccc(O)cc4)coc3c2)[C@H](O)[C@@H](O)[C@@H]1O [malonylgenistin, 6″-O-malonylgenistin]
- Decomposition efficiency of genistin family in concentrated soybean protein [1, 3]: not detected
- Decomposition efficiency of genistin family in defatted soybean [1, 3]: 47.0%
- Decomposition efficiency of genistin family in concentrated soybean protein [1, 4]: not detected
- Decomposition efficiency of genistin family in defatted soybean [1, 4]: 51.3%
- Decomposition efficiency of genistin family in concentrated soybean protein [1, 5]: not detected
- Decomposition efficiency of genistin family in defatted soybean [1, 5]: 49.1%
- Decomposition efficiency of genistin family in concentrated soybean protein [1, 6]: not detected
- Decomposition efficiency of genistin family in defatted soybean [1, 6]: 45.6%
- Decomposition efficiency of genistin family in concentrated soybean protein [1, 7]: not detected
- Decomposition efficiency of genistin family in defatted soybean [1, 7]: 49.5%
- Decomposition efficiency of genistin family in roasted soy flour [1, 8]: not detected
- Decomposition efficiency of genistin family in soymilk [1, 8]: 58.5%
- Decomposition efficiency of genistin family in roasted soy flour [1, 9]: not detected
- Decomposition efficiency of genistin family in soymilk [1, 9]: 56.5%
- Decomposition efficiency of genistin family in roasted soy flour [1, 10]: not detected
- Decomposition efficiency of genistin family in soymilk [1, 10]: 47.9%
- Decomposition efficiency of genistin family in roasted soy flour [1, 11]: not detected
- Decomposition efficiency of genistin family in soymilk [1, 11]: 36.1%
- Decomposition efficiency of genistin family in roasted soy flour [1, 12]: not detected
- Decomposition efficiency of genistin family in soymilk [1, 12]: 57.7%
- Decomposition efficiency of genistin family in concentrated soybean protein [1, 13]: not detected
- Decomposition efficiency of genistin family in defatted soybean [1, 13]: 47.0%
- Decomposition efficiency of genistin family in concentrated soybean protein [1, 14]: not detected
- Decomposition efficiency of genistin family in defatted soybean [1, 14]: 49.0%
- Decomposition efficiency of genistin family in concentrated soybean protein [1, 15]: not detected
- Decomposition efficiency of genistin family in defatted soybean [1, 15]: 46.8%
- Decomposition efficiency of genistin family in concentrated soybean protein [1, 16]: not detected
- Decomposition efficiency of genistin family in defatted soybean [1, 16]: 44.2%
- Decomposition efficiency of genistin family in concentrated soybean protein [1, 17]: not detected
- Decomposition efficiency of genistin family in defatted soybean [1, 17]: 48.1%
- Decomposition efficiency of genistin family in roasted soy flour [1, 18]: not detected
- Decomposition efficiency of genistin family in soymilk [1, 18]: 57.8%
- Decomposition efficiency of genistin family in roasted soy flour [1, 19]: not detected
- Decomposition efficiency of genistin family in soymilk [1, 19]: 49.4%
- Decomposition efficiency of genistin family in roasted soy flour [1, 20]: not detected
- Decomposition efficiency of genistin family in soymilk [1, 20]: 34.7%
- Decomposition efficiency of genistin family in roasted soy flour [1, 21]: not detected
- Decomposition efficiency of genistin family in soymilk [1, 21]: 20.7%
- Decomposition efficiency of genistin family in roasted soy flour [1, 22]: not detected
- Decomposition efficiency of genistin family in soymilk [1, 22]: 57.2%
- Decomposition efficiency of genistin family in concentrated soybean protein [1, 23]: not detected
- Decomposition efficiency of genistin family in defatted soybean [1, 23]: 47.0%
- Decomposition efficiency of genistin family in concentrated soybean protein [1, 24]: not detected
- Decomposition efficiency of genistin family in defatted soybean [1, 24]: 48.8%
- Decomposition efficiency of genistin family in concentrated soybean protein [1, 25]: not detected
- Decomposition efficiency of genistin family in defatted soybean [1, 25]: 46.1%
- Decomposition efficiency of genistin family in concentrated soybean protein [1, 26]: not detected
- Decomposition efficiency of genistin family in defatted soybean [1, 26]: 43.4%
- Decomposition efficiency of genistin family in concentrated soybean protein [1, 27]: not detected
- Decomposition efficiency of genistin family in defatted soybean [1, 27]: 47.8%
- Decomposition efficiency of genistin family in roasted soy flour [1, 28]: not detected
- Decomposition efficiency of genistin family in soymilk [1, 28]: 59.1%
- Decomposition efficiency of genistin family in roasted soy flour [1, 29]: not detected
- Decomposition efficiency of genistin family in soymilk [1, 29]: 46.9%
- Decomposition efficiency of genistin family in roasted soy flour [1, 30]: not detected
- Decomposition efficiency of genistin family in soymilk [1, 30]: 32.5%
- Decomposition efficiency of genistin family in roasted soy flour [1, 31]: not detected
- Decomposition efficiency of genistin family in soymilk [1, 31]: 20.4%
- Decomposition efficiency of genistin family in roasted soy flour [1, 32]: not detected
- Decomposition efficiency of genistin family in soymilk [1, 32]: 53.3%
- Decomposition efficiency of genistin family in concentrated soybean protein [1, 33]: not detected
- Decomposition efficiency of genistin family in defatted soybean [1, 33]: 47.0%
- Decomposition efficiency of genistin family in concentrated soybean protein [1, 34]: not detected
- Decomposition efficiency of genistin family in defatted soybean [1, 34]: 48.9%
- Decomposition efficiency of genistin family in concentrated soybean protein [1, 35]: not detected
- Decomposition efficiency of genistin family in defatted soybean [1, 35]: 45.2%
- Decomposition efficiency of genistin family in concentrated soybean protein [1, 36]: not detected
- Decomposition efficiency of genistin family in defatted soybean [1, 36]: 41.1%
- Decomposition efficiency of genistin family in concentrated soybean protein [1, 37]: not detected
- Decomposition efficiency of genistin family in defatted soybean [1, 37]: 39.7%
- Decomposition efficiency of genistin family in roasted soy flour [1, 38]: not detected
- Decomposition efficiency of genistin family in soymilk [1, 38]: 58.5%
- Decomposition efficiency of genistin family in roasted soy flour [1, 39]: not detected
- Decomposition efficiency of genistin family in soymilk [1, 39]: 48.9%
- Decomposition efficiency of genistin family in roasted soy flour [1, 40]: not detected
- Decomposition efficiency of genistin family in soymilk [1, 40]: 40.6%
- Decomposition efficiency of genistin family in roasted soy flour [1, 41]: not detected
- Decomposition efficiency of genistin family in soymilk [1, 41]: 31.8%
- Decomposition efficiency of genistin family in roasted soy flour [1, 42]: not detected
- Decomposition efficiency of genistin family in soymilk [1, 42]: 44.6%
- Decomposition efficiency of genistin family in concentrated soybean protein [1, 43]: not detected
- Decomposition efficiency of genistin family in defatted soybean [1, 43]: 47.0%
- Decomposition efficiency of genistin family in concentrated soybean protein [1, 44]: not detected
- Decomposition efficiency of genistin family in defatted soybean [1, 44]: 43.8%
- Decomposition efficiency of genistin family in concentrated soybean protein [1, 45]: not detected
- Decomposition efficiency of genistin family in defatted soybean [1, 45]: 32.5%
- Decomposition efficiency of genistin family in concentrated soybean protein [1, 46]: not detected
- Decomposition efficiency of genistin family in defatted soybean [1, 46]: 20.9%
- Decomposition efficiency of genistin family in concentrated soybean protein [1, 47]: not detected
- Decomposition efficiency of genistin family in defatted soybean [1, 47]: 20.1%
- Decomposition efficiency of genistin family in roasted soy flour [1, 48]: not detected
- Decomposition efficiency of genistin family in soymilk [1, 48]: 57.8%
- Decomposition efficiency of genistin family in roasted soy flour [1, 49]: not detected
- Decomposition efficiency of genistin family in soymilk [1, 49]: 50.4%
- Decomposition efficiency of genistin family in roasted soy flour [1, 50]: not detected
- Decomposition efficiency of genistin family in soymilk [1, 50]: 37.7%
- Decomposition efficiency of genistin family in roasted soy flour [1, 51]: not detected
- Decomposition efficiency of genistin family in soymilk [1, 51]: 24.1%
- Decomposition efficiency of genistin family in roasted soy flour [1, 52]: not detected
- Decomposition efficiency of genistin family in soymilk [1, 52]: 22.9%
- aglycon ([2]; Reaction time 0 h): 0
- glucoside ([2]; Reaction time 0 h): 100
- aglycon ([2]; Reaction time 1 h): 0
- glucoside ([2]; Reaction time 1 h): 100
- aglycon ([2]; Reaction time 3 h): 0
- glucoside ([2]; Reaction time 3 h): 100
- aglycon ([2]; Reaction time 6 h): 0
- glucoside ([2]; Reaction time 6 h): 100
